According to patent US10981926B2 (Janssen Pharmaceutica NV, priority 2016, dated 2021):

Columns and labels:
[1] = target: T1, wild-type Androgen Receptor (AR-wt) (Homo sapiens (Human), UniProt P10275); test: LNCaP-AR-wt ANT reporter assay (antagonist mode); type: cell-based; details: for LNCaP-AR-wt ANT pIC50 / IC50: antagonist mode, pIC50 = −Log10(IC50 in Molar); for Emax: read-out: LNCaP-AR-wt ANT MAX % Inh; for IC50: read-out: LNCaP-AR-wt ANT pIC50 (converted)
[2] = target: T1, wild-type Androgen Receptor (AR-wt); test: LNCaP-AR-wt AG reporter assay (agonist mode); type: cell-based; details: for LNCaP-AR-wt AG pEC50 / EC50: agonist mode, pEC50 = −Log10(EC50 in Molar); for Emax: read-out: LNCaP-AR-wt AG MAX % Stim; for EC50: read-out: LNCaP-AR-wt AG pEC50 (converted)
[3] = target: T2, F876L mutant Androgen Receptor (AR-F876L) (Homo sapiens (Human), UniProt P10275, F877L); test: LNCaP-AR-F876L ANT reporter assay (antagonist mode); type: cell-based; details: for IC50: read-out: LNCaP-AR-F876L ANT pIC50 (converted); for Emax: read-out: LNCaP-AR-F876L ANT MAX % Inh
[4] = target: T2, F876L mutant Androgen Receptor (AR-F876L); test: LNCaP-AR-F876L AG reporter assay (agonist mode); type: cell-based; details: for LNCaP-AR-F876L AG pEC50 / EC50: agonist mode, pEC50 = −Log10(EC50 in Molar); for Emax: read-out: LNCaP-AR-F876L AG MAX % Stim; for EC50: read-out: LNCaP-AR-F876L AG pEC50 (converted)
[5] = test system: rGABA-gated Cl− channel; test: GABA-Gated Cl Channel Antagonist Radioligand Binding Assay; set-up: species or system rat; details: 10 μM single point, [35S]-TBPS, cerebral cortex membrane homogenates
Outline: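 Rat cerebral cortex membranes (120 μg protein) incubated 120 min at 22° C with 3 nM […] in 50 mM Na2HPO4/KH2PO4 pH 7.4, 500 mM NaCl; nonspecific binding defined with 20 μM picrotoxinin. Bound label counted after filtration; values are percent inhibition of specific binding at 10 μM compound.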

[6] = maximum % inhibition of R1881 control response over the tested concentration range
[7] = maximum % stimulation (agonist response) over the tested concentration range
[8] = antagonist mode, pIC50 = −Log10(IC50 in Molar)

T2 sequence (P10275 whole entry F877L): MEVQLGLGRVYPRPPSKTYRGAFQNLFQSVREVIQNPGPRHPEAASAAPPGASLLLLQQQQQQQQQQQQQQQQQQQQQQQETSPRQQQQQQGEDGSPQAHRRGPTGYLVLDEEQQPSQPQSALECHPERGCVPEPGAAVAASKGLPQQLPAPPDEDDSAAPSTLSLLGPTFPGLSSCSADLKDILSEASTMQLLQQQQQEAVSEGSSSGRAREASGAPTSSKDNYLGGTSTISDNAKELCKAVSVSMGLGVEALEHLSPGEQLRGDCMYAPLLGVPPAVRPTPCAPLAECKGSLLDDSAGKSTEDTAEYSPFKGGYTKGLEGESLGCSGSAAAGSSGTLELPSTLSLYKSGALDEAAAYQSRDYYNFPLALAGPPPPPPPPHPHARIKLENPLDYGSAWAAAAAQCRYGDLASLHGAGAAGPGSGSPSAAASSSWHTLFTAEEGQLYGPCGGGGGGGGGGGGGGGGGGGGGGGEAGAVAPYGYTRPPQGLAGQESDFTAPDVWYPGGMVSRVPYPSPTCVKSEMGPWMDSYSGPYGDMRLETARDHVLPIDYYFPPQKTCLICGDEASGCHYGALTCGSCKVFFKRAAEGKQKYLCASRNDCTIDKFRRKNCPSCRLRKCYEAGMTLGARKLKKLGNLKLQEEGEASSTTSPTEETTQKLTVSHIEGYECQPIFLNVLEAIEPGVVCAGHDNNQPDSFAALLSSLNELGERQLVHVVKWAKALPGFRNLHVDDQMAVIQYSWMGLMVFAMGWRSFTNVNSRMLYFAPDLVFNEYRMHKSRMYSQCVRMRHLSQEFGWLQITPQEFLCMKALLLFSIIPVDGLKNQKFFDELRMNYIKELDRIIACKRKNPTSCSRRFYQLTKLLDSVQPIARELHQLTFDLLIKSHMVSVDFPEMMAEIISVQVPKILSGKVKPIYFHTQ
T1 sequence (P10275 whole entry): as the sequence (P10275 whole entry F877L) above, with L877F counted along it

Row | Compound | rGABA-gated Cl− channel % inh @10 μM [5] | Emax [1, 6] | Emax [2, 7] | IC50 [3, 8] | Emax [3, 6] | Emax [4, 7] | IC50 [1] | EC50 [2] | EC50 [4] | LNCaP-AR-wt ANT pIC50 [1] | LNCaP-AR-wt ANT MAX % Inh [1, 6] | LNCaP-AR-wt AG pEC50 [2] | LNCaP-AR-wt AG MAX % Stim [2, 7] | LNCaP-AR-F876L ANT pIC50 [3, 8] | LNCaP-AR-F876L ANT MAX % Inh [3, 6] | LNCaP-AR-F876L AG pEC50 [4] | LNCaP-AR-F876L AG MAX % Stim [4, 7]
1 | CC1COC(COc2ccc(N3C(=S)N(c4cnc(C#N)c(C(F)(F)F)c4)C(=O)C34CCC4)cc2)CN1 [Cpd 91, (R,S),(R,S)-5-[8-[4-[(5-methylmorpholin-2-yl)methoxy]phenyl]-5-oxo-7-thioxo-6,8-diazaspiro[3.4]octan-6-yl]-3-(trifluoromethyl)pyridine-2-carbonitrile] | 36.7% |  |  |  |  |  |  |  |  | 7.33 | 98.3% | <4.82 | 0.6% | 7.49 | 98.6% | <4.82 | 0.4%
2 | N#Cc1ncc(N2C(=O)C3(CCC3)N(c3ccc(OC4CC5CCC(N5)C4F)cc3)C2=S)cc1C(F)(F)F (stereo not drawn) [Cpd 93, 5-[8-[4-[(4-fluoro-8-azabicyclo[3.2.1]octan-3-yl)oxy]phenyl]-5-oxo-7-thioxo-6,8-diazaspiro[3.4]octan-6-yl]-3-(trifluoromethyl)pyridine-2-carbonitrile] | 74.4% | 105% | 0.5% | 45.7 nM | 102% | 0.2% |  |  |  | 6.77 |  | <4.82 |  |  |  | <4.82 | 
3 | CN1C2CCC1C(F)C(Oc1ccc(N3C(=S)N(c4cnc(C#N)c(C(F)(F)F)c4)C(=O)C34CCC4)cc1)C2 (stereo not drawn) [Cpd 94, 5-[8-[4-[(4-fluoro-8-methyl-8-azabicyclo[3.2.1]octan-3-yl)oxy]phenyl]-5-oxo-7-thioxo-6,8-diazaspiro[3.4]octan-6-yl]-3-(trifluoromethyl)pyridine-2-carbonitrile] | 91.0% | 101% | 0.8% | 70.8 nM | 101% | 0.2% |  |  |  | 6.78 |  | <4.82 |  |  |  | <4.82 | 
4 | COCCN1CCC(Oc2ccc(N3C(=S)N(c4cnc(C#N)c(C)c4)C(=O)C34CCC4)cn2)CC1 [Cpd 98, 5-[8-[6-[[1-(2-methoxyethyl)-4-piperidyl]oxy]-3-pyridyl]-5-oxo-7-thioxo-6,8-diazaspiro[3.4]octan-6-yl]-3-methyl-pyridine-2-carbonitrile] | −7.6% | 101% | 0.3% | 20.9 nM | 100% | 0.1% | 46.8 nM | > 15.1 µM | > 15.1 µM |  |  |  |  |  |  |  | 
5 | Cc1cc(N2C(=O)C3(CCC3)N(c3ccc(OC4CCN(CCO)CC4)nc3)C2=S)cnc1C#N [Cpd 100, 5-[8-[6-[[1-(2-hydroxyethyl)-4-piperidyl]oxy]-3-pyridyl]-5-oxo-7-thioxo-6,8-diazaspiro[3.4]octan-6-yl]-3-methyl-pyridine-2-carbonitrile] | 2.3% | 100% | 0.1% | 58.9 nM | 98.9% | 0.5% | 162 nM | > 15.1 µM | > 15.1 µM |  |  |  |  |  |  |  | 
6 | C#CCN1CCC(Oc2ccc(N3C(=S)N(c4cnc(C#N)c(C(F)(F)F)c4)C(=O)C34CCC4)cn2)CC1 [Cpd 104, 5-[5-oxo-8-[6-[(1-prop-2-ynyl-4-piperidyl)oxy]-3-pyridyl]-7-thioxo-6,8-diazaspiro[3.4]octan-6-yl]-3-(trifluoromethyl)pyridine-2-carbonitrile] | 98.9% | 101% | 0.5% | 41.7 nM | 99.6% | 0.7% | 69.2 nM | > 15.1 µM | > 15.1 µM |  |  |  |  |  |  |  | 
7 | N#Cc1ncc(N2C(=O)C3(CCC3)N(c3ccc(OCCN4CC5(COC5)C4)cc3)C2=S)cc1C(F)(F)F [Cpd 105, 5-[8-[4-[2-(6-oxa-2-azaspiro[3.3]heptan-2-yl)ethoxy]phenyl]-5-oxo-7-thioxo-6,8-diazaspiro[3.4]octan-6-yl]-3-(trifluoromethyl)pyridine-2-carbonitrile] | 23.9% | 100% | 0.1% | 66.1 nM | 97.6% | 0.8% | 123 nM | > 15.1 µM | > 15.1 µM |  |  |  |  |  |  |  | 
8 | CN1CCC(n2ncc3cc(N4C(=S)N(c5cnc(C#N)c(C(F)(F)F)c5)C(=O)C45CCC5)ccc32)CC1 [Cpd 109, 5-[8-[1-(1-methyl-4-piperidyl)indazol-5-yl]-5-oxo-7-thioxo-6,8-diazaspiro[3.4]octan-6-yl]-3-(trifluoromethyl)pyridine-2-carbonitrile] | 20.6% | 96.1% | 0% | 1350 nM | 98.8% | 0.2% | 2820 nM | > 15.1 µM | > 15.1 µM |  |  |  |  |  |  |  | 
9 | N#Cc1ncc(N2C(=O)C3(CCC3)N(c3ccc4nn(C5CCNCC5)cc4c3)C2=S)cc1C(F)(F)F [Cpd 115, 5-[5-oxo-8-[2-(4-piperidyl)indazol-5-yl]-7-thioxo-6,8-diazaspiro[3.4]octan-6-yl]-3-(trifluoromethyl)pyridine-2-carbonitrile] | 40.0% | 87% | -0.1% | 288 nM | 104% | 0.1% | 575 nM | > 15.1 µM | > 15.1 µM |  |  |  |  |  |  |  | 
10 | N#Cc1ncc(N2C(=O)C3(CCC3)N(c3ccc4c(cnn4C4CCNCC4)c3)C2=S)cc1C(F)(F)F [Cpd 119, 5-[5-oxo-8-[1-(4-piperidyl)indazol-5-yl]-7-thioxo-6,8-diazaspiro[3.4]octan-6-yl]-3-(trifluoromethyl)pyridine-2-carbonitrile] | 43.1% | 102% | 0.1% | 195 nM | 100% | 2.7% | 537 nM | > 15.1 µM | > 15.1 µM |  |  |  |  |  |  |  | 

Continued, in another order:

Row | rGABA-gated Cl− channel % inh @10 μM [5] | Emax [1, 6] | Emax [2, 7] | IC50 [3, 8] | Emax [3, 6] | Emax [4, 7] | IC50 [1] | EC50 [2] | EC50 [4] | Compound | LNCaP-AR-wt ANT pIC50 [1] | LNCaP-AR-wt ANT MAX % Inh [1, 6] | LNCaP-AR-wt AG pEC50 [2] | LNCaP-AR-wt AG MAX % Stim [2, 7] | LNCaP-AR-F876L ANT pIC50 [3, 8] | LNCaP-AR-F876L ANT MAX % Inh [3, 6] | LNCaP-AR-F876L AG pEC50 [4] | LNCaP-AR-F876L AG MAX % Stim [4, 7]
11 | 4.0% | 102% | 0% | 25.1 nM | 99.9% | 0.2% | 55 nM | > 15.1 µM | > 15.1 µM | CN1CC2(CC(Oc3ccc(N4C(=S)N(c5cnc(C#N)c(C(F)(F)F)c5)C(=O)C45CCC5)cc3)C2)C1 [Cpd 97, 5-[8-[4-[(6-methyl-6-azaspiro[3.3]heptan-2-yl)oxy]phenyl]-5-oxo-7-thioxo-6,8-diazaspiro[3.4]octan-6-yl]-3-(trifluoromethyl)pyridine-2-carbonitrile] |  |  |  |  |  |  |  | 
12 | 87.2% | 101% | 0.5% | 24.5 nM | 97.5% | 1.9% | 22.9 nM | > 15.1 µM | > 15.1 µM | C#CCN1CCC(Oc2ccc(N3C(=S)N(c4cnc(C#N)c(C(F)(F)F)c4)C(=O)C34CCC4)cc2)CC1 [Cpd 107, 5-[5-oxo-8-[4-[(1-prop-2-ynyl-4-piperidyl)oxy]phenyl]-7-thioxo-6,8-diazaspiro[3.4]octan-6-yl]-3-(trifluoromethyl)pyridine-2-carbonitrile] |  |  |  |  |  |  |  | 
13 | 17.1% | 98.3% | 0.7% | 1020 nM | 94.8% | 0.2% | 1660 nM | > 15.1 µM | > 15.1 µM | N#Cc1ncc(N2C(=O)C3(CCC3)N(c3ccc4c(c3)CCNC4)C2=S)cc1C(F)(F)F [Cpd 108, 5-(8-oxo-5-(1,2,3,4-tetrahydroisoquinolin-6-yl)-6-thioxo-5,7-diazaspiro[3.4]octan-7-yl)-3-(trifluoromethyl)picolinonitrile] |  |  |  |  |  |  |  | 
14 | 2.8% | 101% | 0.8% | 117 nM | 101% | 0.4% | 132 nM | > 15.1 µM | > 15.1 µM | N#Cc1ncc(N2C(=O)C3(CCC3)N(c3ccc(OC4CCCO4)cc3)C2=S)cc1C(F)(F)F (stereo not drawn) [Cpd 111, 5-[5-oxo-8-(4-tetrahydrofuran-2-yloxyphenyl)-7-thioxo-6,8-diazaspiro[3.4]octan-6-yl]-3-(trifluoromethyl)pyridine-2-carbonitrile] |  |  |  |  |  |  |  | 
15 | 99.1% | 102% | 0.3% | 282 nM | 100% | 0.2% | 269 nM | > 15.1 µM | > 15.1 µM | N#Cc1ncc(N2C(=O)C3(CCC3)N(c3ccc(C4=C[C@@H](O)[C@H](O)CO4)cc3)C2=S)cc1C(F)(F)F [Cpd 112, 5-(5-(4-((3R,4R)-3,4-dihydroxy-3,4-dihydro-2H-pyran-6-yl)phenyl)-8-oxo-6-thioxo-5,7-diazaspiro[3.4]octan-7-yl)-3-(trifluoromethyl)picolinonitrile] |  |  |  |  |  |  |  | 
